Laboratory results taken from US12565505B2, “mTORC modulators and uses thereof” (Aeovian Pharmaceuticals, Inc., priority 2019, dated 2026).

Key:
[1] = biological target: T1, mTORC1 (Homo sapiens, UniProt P42345+P62942); experiment: Inhibition assay for mTORC1: phosphorylation of pS6K at Thr389, AlphaLISA SureFire in PC3 cells; assay type: cell-based; settings: PC3 cells, 24 hours treatment, pS6K Thr389; analogs substituted at C40 and C16 (C16 diastereomer mixtures not isolated); read-out: pIC50 mTORC1 (converted)
T1 construct: endogenous in cells; host or cells: PC3 cells (human prostate adenocarcinoma)
Method: (§1) The IC50s of the inhibition of mTORC1 and mTORC2 were determined in vitro by determining the phosphorylation of pS6K at position Thr389 (mTORC1 inhibition) and pAkt at Ser473 (mTORC2 inhibition). In vitro studies were performed with AiphaLISA® technology using PC3 cells (Prostate Adenocarcinoma; Human (Homo sapiens)). The cells were seeded in 96 well plates and were treated for 24 hours with the different compounds. […] All analysis were performed using GraphPad Prism 7.0 (GraphPad Software, San Diego, USA).
Tables 5-7 include PIC50 values for mTORC1 of selected compounds; with compounds having an PIC50 for mTORC1 of >9.5 as A, 8.5 to 9.5 as B, and less than 8.5 as C.

[2] = biological target: T2, mTORC2 (Homo sapiens, UniProt P42345+P62942); experiment: Inhibition assay for mTORC2: phosphorylation of pAkt at Ser473, AlphaLISA SureFire in PC3 cells; assay type: cell-based; settings: PC3 cells, 24 hours treatment, analogs substituted at C40 and C16 (C16 diastereomer mixtures not isolated), read-out: pIC50 mTORC2 (converted)
T2 construct: endogenous in cells; host or cells: PC3 cells (human prostate adenocarcinoma)
Method: as §1, with “USA). […]” for “USA).”

Row | SMILES | IC50 [1] | IC50 [2]
1 | COCCOC1C[C@@H]2CC[C@@H](C)[C@@](O)(O2)C(=O)C(=O)N2CCCCC2C(=O)O[C@H]([C@H](C)C[C@@H]2CC[C@@H](OCCCN3CCO[C@H](C)C3)[C@H](OC)C2)CC(=O)[C@H](C)/C=C(\C)[C@@H](O)[C@@H](OC)C(=O)[C@H](C)C[C@H](C)/C=C/C=C/C=C/1C (stereo partly shown) [Compound 36] | < 0.000316 µM | 1 to 10 µM
2 | CO[C@@H]1C[C@H](C[C@@H](C)[C@@H]2CC(=O)[C@H](C)/C=C(\C)[C@@H](O)[C@@H](OC)C(=O)[C@H](C)C[C@H](C)/C=C/C=C/C=C(\C)C(OCCO)C[C@@H]3CC[C@@H](C)[C@@](O)(O3)C(=O)C(=O)N3CCCCC3C(=O)O2)CC[C@H]1OCCCc1ccccc1 (stereo partly shown) [Compound 38] | 0.000316 to 0.00316 µM | > 10 µM
3 | CO[C@@H]1C[C@H](C[C@@H](C)[C@@H]2CC(=O)[C@H](C)/C=C(\C)[C@@H](O)[C@@H](OC)C(=O)[C@H](C)C[C@H](C)/C=C/C=C/C=C(\C)C(OCCO)C[C@@H]3CC[C@@H](C)[C@@](O)(O3)C(=O)C(=O)N3CCCCC3C(=O)O2)CC[C@H]1OC(=O)N(C)CCN1CCOCC1 (stereo partly drawn) [Compound 41, [(1R,2R,4S)-4-[(2R)-2-[(1R,9S,12S,15R,16E,18R,19R,21R,23S,24E,26E,28E,32S,35R)-1,18-dihydroxy-30-(2-hydroxyethoxy)-19-methoxy-15,17,21,23,29,35-hexamethyl-2,3,10,14,20-pentaoxo-11,36-dioxa-4-azatricyclo[30.3.1.0^4,9]hexatriaconta-16,24,26,28-tetraen-12-yl]propyl]-2-methoxy-cyclohexyl] N-methyl-N-(2-morpholinoethyl)carbamate] | < 0.000316 µM | 1 to 10 µM
4 | COCCOC1C[C@@H]2CC[C@@H](C)[C@@](O)(O2)C(=O)C(=O)N2CCCCC2C(=O)O[C@H]([C@H](C)C[C@@H]2CC[C@@H](OCCN3CCN(C)CC3)[C@H](OC)C2)CC(=O)[C@H](C)/C=C(\C)[C@@H](O)[C@@H](OC)C(=O)[C@H](C)C[C@H](C)/C=C/C=C/C=C/1C (stereo partly shown) [Compound 47] | < 0.000316 µM | 1 to 10 µM
5 | COCCOC1C[C@@H]2CC[C@@H](C)[C@@](O)(O2)C(=O)C(=O)N2CCCCC2C(=O)O[C@H]([C@H](C)C[C@@H]2CC[C@@H](OCCCN3CCOCC3)[C@H](OC)C2)CC(=O)[C@H](C)/C=C(\C)[C@@H](O)[C@@H](OC)C(=O)[C@H](C)C[C@H](C)/C=C/C=C/C=C/1C (stereo partly shown) [Compound 48] | < 0.000316 µM | 1 to 10 µM
6 | CO[C@@H]1C[C@H](C[C@@H](C)[C@@H]2CC(=O)[C@H](C)/C=C(\C)[C@@H](O)[C@@H](OC)C(=O)[C@H](C)C[C@H](C)/C=C/C=C/C=C(\C)C(OCCO)C[C@@H]3CC[C@@H](C)[C@@](O)(O3)C(=O)C(=O)N3CCCCC3C(=O)O2)CC[C@H]1OCCCCN1CCOCC1 (stereo partly shown) [Compound 50] | < 0.000316 µM | 1 to 10 µM
7 | COCCOC1C[C@@H]2CC[C@@H](C)[C@@](O)(O2)C(=O)C(=O)N2CCCCC2C(=O)O[C@H]([C@H](C)C[C@@H]2CC[C@@H](OCCN3CCCCC3)[C@H](OC)C2)CC(=O)[C@H](C)/C=C(\C)[C@@H](O)[C@@H](OC)C(=O)[C@H](C)C[C@H](C)/C=C/C=C/C=C/1C (stereo partly shown) [Compound 51] | < 0.000316 µM | 1 to 10 µM
8 | CO[C@@H]1C[C@H](C[C@@H](C)[C@@H]2CC(=O)[C@H](C)/C=C(\C)[C@@H](O)[C@@H](OC)C(=O)[C@H](C)C[C@H](C)/C=C/C=C/C=C(\C)C(OCCOCCO)C[C@@H]3CC[C@@H](C)[C@@](O)(O3)C(=O)C(=O)N3CCCCC3C(=O)O2)CC[C@H]1OCCCO (stereo partly shown) [Compound 53] | 0.000316 to 0.00316 µM | > 10 µM
9 | COCCOC1C[C@@H]2CC[C@@H](C)[C@@](O)(O2)C(=O)C(=O)N2CCCCC2C(=O)O[C@H]([C@H](C)C[C@@H]2CC[C@@H](OCCCN3CCC[C@H](O)C3)[C@H](OC)C2)CC(=O)[C@H](C)/C=C(\C)[C@@H](O)[C@@H](OC)C(=O)[C@H](C)C[C@H](C)/C=C/C=C/C=C/1C (stereo partly shown) [Compound 54] | < 0.000316 µM | 1 to 10 µM
10 | CO[C@@H]1C[C@H](C[C@@H](C)[C@@H]2CC(=O)[C@H](C)/C=C(\C)[C@@H](O)[C@@H](OC)C(=O)[C@H](C)C[C@H](C)/C=C/C=C/C=C(\C)C(OCCO)C[C@@H]3CC[C@@H](C)[C@@](O)(O3)C(=O)C(=O)N3CCCCC3C(=O)O2)CC[C@H]1OCCCN1CCOCC1 (stereo partly drawn) [Compound 55, (1R,9S,12SR,15R,16E,18R,19R,21R,23S,24E,26E,28E,32S,35R)-1,18-dihydroxy-30-(2-hydroxyethoxy)-19-methoxy-12-[(1R)-2-[(1S,3R,4R)-3-methoxy-4-(3-morpholinopropoxy)cyclohexyl]-1-methyl-ethyl]-15,17,21,23,29,35-hexamethyl-11,36-dioxa-4-azatricyclo[30.3.1.0^4,9]hexatriaconta-16,24,26,28-tetraene-2,3,10,14,20-pentone] | < 0.000316 µM | 1 to 10 µM
11 | COCCOC1C[C@@H]2CC[C@@H](C)[C@@](O)(O2)C(=O)C(=O)N2CCCCC2C(=O)O[C@H]([C@H](C)C[C@@H]2CC[C@@H](OCCCCN3CCOCC3)[C@H](OC)C2)CC(=O)[C@H](C)/C=C(\C)[C@@H](O)[C@@H](OC)C(=O)[C@H](C)C[C@H](C)/C=C/C=C/C=C/1C (stereo partly shown) [Compound 56] | < 0.000316 µM | 1 to 10 µM
12 | COCCOC1C[C@@H]2CC[C@@H](C)[C@@](O)(O2)C(=O)C(=O)N2CCCCC2C(=O)O[C@H]([C@H](C)C[C@@H]2CC[C@@H](OC(=O)NCCN3CCCCC3)[C@H](OC)C2)CC(=O)[C@H](C)/C=C(\C)[C@@H](O)[C@@H](OC)C(=O)[C@H](C)C[C@H](C)/C=C/C=C/C=C/1C (stereo partly shown) [Compound 57] | < 0.000316 µM | 1 to 10 µM
13 | COCCOC1C[C@@H]2CC[C@@H](C)[C@@](O)(O2)C(=O)C(=O)N2CCCCC2C(=O)O[C@H]([C@H](C)C[C@@H]2CC[C@@H](OC[C@@H](O)CO)[C@H](OC)C2)CC(=O)[C@H](C)/C=C(\C)[C@@H](O)[C@@H](OC)C(=O)[C@H](C)C[C@H](C)/C=C/C=C/C=C/1C (stereo partly shown) [Compound 58] | < 0.000316 µM | 1 to 10 µM
14 | COCCOC1C[C@@H]2CC[C@@H](C)[C@@](O)(O2)C(=O)C(=O)N2CCCCC2C(=O)O[C@H]([C@H](C)C[C@@H]2CC[C@@H](OCCCN3C[C@@H](C)O[C@@H](C)C3)[C@H](OC)C2)CC(=O)[C@H](C)/C=C(\C)[C@@H](O)[C@@H](OC)C(=O)[C@H](C)C[C@H](C)/C=C/C=C/C=C/1C (stereo partly shown) [Compound 59] | < 0.000316 µM | 1 to 10 µM
15 | CO[C@@H]1C[C@H](C[C@@H](C)[C@@H]2CC(=O)[C@H](C)/C=C(\C)[C@@H](O)[C@@H](OC)C(=O)[C@H](C)C[C@H](C)/C=C/C=C/C=C(\C)C(OCCCCO)C[C@@H]3CC[C@@H](C)[C@@](O)(O3)C(=O)C(=O)N3CCCCC3C(=O)O2)CC[C@H]1OCCO (stereo partly shown) [Compound 63] | < 0.000316 µM | 1 to 10 µM
16 | CO[C@@H]1C[C@H](C[C@@H](C)[C@@H]2CC(=O)[C@H](C)/C=C(\C)[C@@H](O)[C@@H](OC)C(=O)[C@H](C)C[C@H](C)/C=C/C=C/C=C(\C)C(OCCO)C[C@@H]3CC[C@@H](C)[C@@](O)(O3)C(=O)C(=O)N3CCCCC3C(=O)O2)CC[C@H]1OC(=O)NCCO (stereo partly shown) [Compound 64] | 0.000316 to 0.00316 µM | > 10 µM
17 | COCCCCOC1C[C@@H]2CC[C@@H](C)[C@@](O)(O2)C(=O)C(=O)N2CCCCC2C(=O)O[C@H]([C@H](C)C[C@@H]2CC[C@@H](OCCCN3CCOCC3)[C@H](OC)C2)CC(=O)[C@H](C)/C=C(\C)[C@@H](O)[C@@H](OC)C(=O)[C@H](C)C[C@H](C)/C=C/C=C/C=C/1C (stereo partly shown) [Compound 65] | < 0.000316 µM | 1 to 10 µM
18 | CO[C@@H]1C[C@H](C[C@@H](C)[C@@H]2CC(=O)[C@H](C)/C=C(\C)[C@@H](O)[C@@H](OC)C(=O)[C@H](C)C[C@H](C)/C=C/C=C/C=C(\C)C(OCCOCCO)C[C@@H]3CC[C@@H](C)[C@@](O)(O3)C(=O)C(=O)N3CCCCC3C(=O)O2)CC[C@H]1OCCO (stereo partly shown) [Compound 69] | 0.000316 to 0.00316 µM | > 10 µM
19 | COCCCCOC1C[C@@H]2CC[C@@H](C)[C@@](O)(O2)C(=O)C(=O)N2CCCCC2C(=O)O[C@H]([C@H](C)C[C@@H]2CC[C@@H](OCCCO)[C@H](OC)C2)CC(=O)[C@H](C)/C=C(\C)[C@@H](O)[C@@H](OC)C(=O)[C@H](C)C[C@H](C)/C=C/C=C/C=C/1C (stereo partly drawn) [Compound 70, (1R,9S,12S,15R,16E,18R,19R,21R,23S,24E,26E,28E,32S,35R)-1,18-dihydroxy-12-[(1R)-2-[(1S,3R,4R)-4-(3-hydroxypropoxy)-3-methoxy-cyclohexyl]-1-methyl-ethyl]-19-methoxy-30-(4-methoxybutoxy)-15,17,21,23,29,35-hexamethyl-11,36-dioxa-4-azatricyclo[30.3.1.0^4,9]hexatriaconta-16,24,26,28-tetraene-2,3,10,14,20-pentone] | < 0.000316 µM | 1 to 10 µM
20 | CO[C@@H]1C[C@H](C[C@@H](C)[C@@H]2CC(=O)[C@H](C)/C=C(\C)[C@@H](O)[C@@H](OC)C(=O)[C@H](C)C[C@H](C)/C=C/C=C/C=C(\C)C(OC3COC3)C[C@@H]3CC[C@@H](C)[C@@](O)(O3)C(=O)C(=O)N3CCCCC3C(=O)O2)CC[C@H]1OC(=O)NCCN1CCOCC1 (stereo partly shown) [Compound 71] | 0.000316 to 0.00316 µM | > 10 µM
